What was measured:
[1] = target: AP2-associated protein kinase 1 (Homo sapiens, UniProt Q2M2I8); test: Inhibition of recombinant GST-Xa-tagged human AAK1 (30 to 330 residues) using 5-FAM-labelled Alla-KEEQSQITSQVTGQIGWR-NH2 peptide as substrate incubated for 3 hrs in presence of ATP by electrophoretic analysis
[2] = Metabolic stability in human liver microsomes assessed as parent compound remaining at 0.5 uM incubated for 10 mins in presence of NADPH by LC-MS/MS analysis; type: ADME, Microsome; conditions: read-out: Stability
[3] = Metabolic stability in rat liver microsomes assessed as parent compound remaining at 0.5 uM incubated for 10 mins in presence of NADPH by LC-MS/MS analysis; type: ADME, Microsome; conditions: read-out: Stability
[4] = Metabolic stability in mouse liver microsomes assessed as parent compound remaining at 0.5 uM incubated for 10 mins in presence of NADPH by LC-MS/MS analysis; type: ADME, Microsome; conditions: read-out: Stability
[5] = Permeability of the compound across basolateral to apical membrane in human Caco-2 cells incubated for 2 hrs by LC-MS/MS analysis; type: ADME, cell-based; conditions: Caco-2, read-out: permeability
[6] = Permeability of the compound at pH 5.5 incubated for 4 hrs by PAMPA-based UV spectrophotometry; type: ADME; conditions: read-out: permeability
[7] = Permeability of the compound at pH 7.4 incubated for 4 hrs by PAMPA-based UV spectrophotometry; type: ADME

Chain of AP2-associated protein kinase 1 (Q2M2I8 whole entry, the tested form may be a part): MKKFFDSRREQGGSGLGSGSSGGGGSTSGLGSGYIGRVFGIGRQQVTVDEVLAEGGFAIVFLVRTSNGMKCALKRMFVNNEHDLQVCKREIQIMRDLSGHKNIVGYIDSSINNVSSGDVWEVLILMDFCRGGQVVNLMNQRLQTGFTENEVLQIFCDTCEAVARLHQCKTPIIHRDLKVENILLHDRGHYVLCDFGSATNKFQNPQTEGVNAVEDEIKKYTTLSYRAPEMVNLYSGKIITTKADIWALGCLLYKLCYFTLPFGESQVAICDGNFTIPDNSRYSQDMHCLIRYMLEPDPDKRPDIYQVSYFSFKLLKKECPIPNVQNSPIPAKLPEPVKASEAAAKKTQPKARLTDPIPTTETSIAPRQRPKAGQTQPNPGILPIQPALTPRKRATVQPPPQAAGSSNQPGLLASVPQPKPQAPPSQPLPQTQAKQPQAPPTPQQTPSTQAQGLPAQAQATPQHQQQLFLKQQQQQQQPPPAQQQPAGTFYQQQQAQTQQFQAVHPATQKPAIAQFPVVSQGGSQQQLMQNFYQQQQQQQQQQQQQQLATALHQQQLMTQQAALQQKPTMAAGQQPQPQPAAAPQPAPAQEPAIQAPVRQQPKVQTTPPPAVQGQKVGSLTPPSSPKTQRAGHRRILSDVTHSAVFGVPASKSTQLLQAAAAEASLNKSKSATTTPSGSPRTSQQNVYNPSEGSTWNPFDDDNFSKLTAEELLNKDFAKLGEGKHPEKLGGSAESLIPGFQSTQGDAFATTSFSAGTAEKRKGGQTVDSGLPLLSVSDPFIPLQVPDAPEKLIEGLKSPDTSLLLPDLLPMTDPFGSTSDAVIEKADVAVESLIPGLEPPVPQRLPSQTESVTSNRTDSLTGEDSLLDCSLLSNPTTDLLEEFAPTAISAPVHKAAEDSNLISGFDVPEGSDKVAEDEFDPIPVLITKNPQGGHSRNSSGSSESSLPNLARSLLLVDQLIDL

SMILES | IC50 [1] [nM] | remaining at 10 min, 0.5 µM [2] [%] | remaining at 10 min, 0.5 µM [3] [%] | remaining at 10 min, 0.5 µM [4] [%] | Papp B→A at 2 h [5] [×10⁻⁶ cm/s] | Papp at 4 h [6] [×10⁻⁶ cm/s] | permeability ([7]; pampa, pH 7.4, 4 h) | Papp at 4 h ([7]; PAMPA, pH 7.4, read-out: permeability) [×10⁻⁶ cm/s]
COc1cc(NC(=O)[C@H]2CCCCN2)ccc1-c1cnco1 | 550 | 94 | 37 | 1 |  |  |  | 
CC[C@@H](C)[C@@H](N)C(=O)Nc1ccc(-c2cnco2)c(OC)c1 | 31 | 86 | 62 | 81 |  |  |  | 
COc1cc(NC(=O)[C@H](N)CC(C)C)ccc1-c1ccnc(Cl)c1 | 240 | 73 | 89 | 74 |  |  |  | 
COc1cc(NC(=O)[C@H](N)C2CCCCC2)ccc1-c1cnco1 | 18 | 69 | 66 | 67 |  |  |  | 
COc1cc(NC(=O)[C@H](N)CC(C)C)ccc1-c1ccncc1 | 85 | 91 | 77 | 65 |  |  |  | 
COc1cc(NC(=O)[C@H](N)CC(C)C)ccc1-c1cncs1 | 190 | 75 | 76 | 55 |  |  |  | 
C[C@H]1O[C@@H](O[C@H]2[C@@H](O)C[C@H](O[C@H]3[C@@H](O)C[C@H](O[C@H]4CC[C@@]5(C)[C@H](CC[C@@H]6[C@@H]5C[C@@H](O)[C@]5(C)[C@@H](C7=CC(=O)OC7)CC[C@]65O)C4)O[C@@H]3C)O[C@@H]2C)C[C@H](O)[C@@H]1O [DIGOXIN] |  |  |  |  | 10 |  |  | 
COc1cc(NC(=O)[C@H](N)CC(C)C)ccc1-c1cn[nH]n1 | 49 | 84 | 87 | 44 |  |  |  | 
COc1cc(NC(=O)[C@H](N)c2ccccc2)ccc1-c1cnco1 | 42 | 63 | 60 | 75 |  |  |  | 
COc1cc(NC(=O)[C@@H](N)CC(C)C)ccc1-c1cnco1 | 19 | 71 | 40 | 53 |  |  |  | 
COc1cc(NC(=O)[C@H](N)CC(C)C)ccc1-c1cnn(C)c1 | 3900 |  |  |  |  |  |  | 
CC(C)C[C@@H](N)C(=O)Nc1ccc(-c2cnco2)c(C#N)c1 | 72 | 64 | 50 | 57 |  |  |  | 
COc1cc(NC(=O)[C@H](N)CCC(C)C)ccc1-c1cnco1 | 71 | 75 | 62 | 80 |  |  |  | 
COc1cc(NC(=O)[C@H](N)CC(C)C)ccc1-n1ccnc1 |  | 92 | 86 | 87 |  |  |  | 
CCCC[C@@H](N)C(=O)Nc1ccc(-c2cnco2)c(OC)c1 | 65 | 87 | 76 | 65 |  |  |  | 
CN[C@H](CC(C)C)C(=O)Nc1ccc(-c2cnco2)c(OC)c1 | 46 | 53 | 39 | 14 |  |  |  | 
COc1cc(NC(=O)[C@H](N)CC(C)C)ccc1-c1ccnc(N)c1 | 150 | 96 | 89 | 73 |  |  |  | 
COc1cc(NC(=O)[C@H](N)CC(C)C)ccc1-c1ccnnc1 | 110 | 99 | 74 | 70 |  |  |  | 
COc1cc(NC(=O)[C@@H](C)N)ccc1-c1cnco1 | 1300 | 100 | 100 | 97 |  |  |  | 
COc1cc(NC(=O)[C@H](N)CC(C)(C)C)ccc1-c1cnco1 | 85 |  | 76 | 65 |  |  |  | 
CCOc1cc(NC(=O)[C@H](N)CC(C)C)ccc1-c1cnco1 | 13 | 64 | 60 | 54 |  |  |  | 
COc1cc(NC(=O)[C@H](N)CC2CCC2)ccc1-c1cnco1 | 33 | 70 | 58 | 53 |  |  |  | 
COc1cc(NC(=O)[C@H](N)CC(C)C)ccc1-c1cccnc1 | 10200 |  |  |  |  |  |  | 
CC(C)C[C@@H](N)C(=O)Nc1ccc(-c2cnco2)c(F)c1 | 43 | 78 | 68 | 30 |  |  |  | 
COc1cc(NC(=O)[C@H](N)Cc2ccccc2)ccc1-c1cnco1 | 630 | 68 | 49 | 56 |  |  |  | 
CCC[C@H](N)C(=O)Nc1ccc(-c2cnco2)c(OC)c1 | 350 | 70 | 31 | 46 |  |  |  | 
COCCc1ccc(OCC(O)CNC(C)C)cc1 (stereo not drawn) [METOPROLOL] |  |  |  |  |  | 10.2 | 83.5 10^-6 cm/s | 

SMILES | IC50 [1] [nM] | remaining at 10 min, 0.5 µM [2] [%] | remaining at 10 min, 0.5 µM [3] [%] | remaining at 10 min, 0.5 µM [4] [%] | Papp B→A at 2 h [5] [×10⁻⁶ cm/s] | Papp at 4 h [6] [×10⁻⁶ cm/s] | permeability ([7]; pampa, pH 7.4, 4 h) | Papp at 4 h ([7]; PAMPA, pH 7.4, read-out: permeability) [×10⁻⁶ cm/s]
COc1cc(NC(=O)[C@H](N)C2CCCC2)ccc1-c1cnco1 | 13 | 84 | 73 | 63 |  |  |  | 
CC(C)C1CCCNC1C(=O)Nc1ccc(-c2ccncc2)cc1 (racemic) | 17 | 77 | 60 | 76 |  |  |  | 
COc1cc(NC(=O)CCC(C)C)ccc1-c1cnco1 | 80 | 61 | 46 | 33 |  |  |  | 
Cc1cc(NC(=O)[C@H](N)CC(C)C)ccc1-c1cnco1 | 48 | 74 | 74 | 43 |  |  |  | 
CC[C@@H](N)C(=O)Nc1ccc(-c2cnco2)c(OC)c1 | 120 | 81 | 70 | 46 |  |  |  | 
COc1cc(NC(=O)[C@H](N)CC2CCCCC2)ccc1-c1cnco1 | 480 | 68 | 63 | 78 |  |  |  | 
CC(C(=O)O)c1cccc(C(=O)c2ccccc2)c1 (stereo not drawn) [KETOPROFEN] |  |  |  |  |  | 34.2 |  | 1.1
CCC[C@@H](N)C(=O)Nc1ccc(-c2cnco2)c(OC)c1 | 90 | 87 | 63 | 49 |  |  |  | 
COc1cc(NC(=O)[C@H](N)CC(C)C)ccc1-c1ccncn1 | 290 | 71 | 52 | 40 |  |  |  | 
COc1cc(NC(=O)[C@H](N)CC2CC2)ccc1-c1cnco1 | 45 | 100 | 74 | 79 |  |  |  | 
COc1cc(NC(=O)C(CN)CC(C)C)ccc1-c1cnco1 (stereo not drawn) |  | 97 | 63 | 78 |  |  |  | 
COc1cc(NC(=O)Cc2ccccc2)ccc1-c1cnco1 | 430 | 78 | 70 | 70 |  |  |  | 
COc1cc(N(C)C(=O)[C@H](N)CC(C)C)ccc1-c1cnco1 | 12800 |  |  |  |  |  |  | 
CCCC[C@H](N)C(=O)Nc1ccc(-c2cnco2)c(OC)c1 | 260 | 65 | 54 | 43 |  |  |  | 
COc1cc(NC(=O)C[C@@H](N)C(C)C)ccc1-c1cnco1 | 127 | 82 | 4 | 7 |  |  |  | 
CC(C)C[C@@H](N)C(=O)Nc1ccc(-c2cnco2)c(OC(F)(F)F)c1 |  | 69 | 79 | 53 |  |  |  | 
CC(C)C[C@@H](N)C(=O)Nc1ccc(-c2ccncc2)cc1 | 15 | 80 | 75 | 66 |  |  |  | 
COc1cc(NC(=O)[C@H](N)C(C)C)ccc1-c1cnco1 |  | 84 | 42 | 40 |  |  |  | 
CCc1cc(NC(=O)[C@H](N)CC(C)C)ccc1-c1cnco1 | 100 | 88 | 70 | 45 |  |  |  | 
COc1cc(NC(=O)CC2CCCC2)ccc1-c1cnco1 | 80 | 64 | 58 | 46 |  |  |  | 
CC(C)C[C@@H](N)C(=O)Nc1ccc(-c2cnco2)cc1 | 170 | 87 | 71 | 45 |  |  |  | 
COc1cc(NC(=O)[C@H](N)[C@H](C)O)ccc1-c1cnco1 | 410 | 85 | 77 | 91 |  |  |  | 
COc1cc(NC(=O)[C@H](N)CC(C)C)ccc1-n1cncn1 | 920 | 79 | 79 | 87 |  |  |  | 
CNc1cc(-c2ccc(NC(=O)[C@H](N)CC(C)C)cc2OC)ccn1 | 450 | 69 | 22 | 24 |  |  |  | 
COc1cc(NC(=O)[C@H](N)CC(C)C)ccc1-c1cncnc1 | 5700 |  |  |  |  |  |  | 
COc1cc(NC(=O)[C@H]2NCCC[C@H]2C(C)C)ccc1-c1cnco1 | 360 | 19 | 24 | 1 |  |  |  | 

Source: ChEMBL document CHEMBL4828715, “Discovery, Structure-Activity Relationships, and In Vivo Evaluation of Novel Aryl Amides as Brain Penetrant Adaptor Protein 2-Associated Kinase 1 (AAK1) Inhibitors for the Treatment of Neuropathic Pain” (J Med Chem, 2021)
